Assay results taken from PMC8151732, “Thiazole–Chalcone Hybrids as Prospective Antitubercular and Antiproliferative Agents: Design, Synthesis, Biological, Molecular Docking Studies and In Silico ADME Evaluation” (Molecules, 2021).
≈ marks a conversion by molar mass, not a printed value. Like-named read-outs stand apart in the source and are kept apart here.

Columns and labels:
[1] = test system: normal human liver cell lines (L02); experiment: Cytotoxic activity on normal cells, MTT assay; type: cell-based; conditions: for IC50: Homo sapiens, same protocol as DU-145, read-out: Normal Liver Cell Line (L02) (IC50 in µg/mL)
Description: (§1) In both the assays, the IC50 values of the tested compounds were compared with the positive control Methotrexate (Mtx). The reduction of the soluble MTT to blue-color formazan is the principle underlined in MTT assay and such change is chiefly due to the action of intracellular mitochondrial reductase in the living cells. […] Later, the desired concentrations of the compounds were achieved by dissolving in sterile water. The cells were transferred on to 96-well plates at 100 µL total volume and with a density of 1 × 10^4 cells per well. The cells were permitted to adhere for a period of 24 h and then the assay medium was replaced with a fresh medium containing target compounds and incubated in DMEM with 10% fetal bovine serum (FBS) medium at 37 °C for an additional 48 h. Later, the medium was replaced with 90 μL of fresh DMEM without FBS. The above wells were treated with 10 μL of MTT reagent (5 mg/mL of stock solution in DMEM without FBS) and incubated for 3–4 h at 37 °C. The formed blue formazan crystals were dissolved in 200 μL of DMSO. The optical density was then determined at 570 nm using a micro plate reader. The assay was executed in triplicate for three independent experiments. […] The IC50 values measured in µg/mL for the antiproliferative were converted and expressed in µM. Additionally, all the compounds were also assessed for their cytotoxic activity on the normal human liver cell lines (L02) using the same protocol discussed above.

[2] = test system: prostate cancer cell line (DU-145); experiment: Antiproliferative activity, MTT assay; conditions: mean ± SD (n = 3), converted from µg/mL
Description: as §1

[3] = test system: Mycobacterium tuberculosis H37Rv strain; experiment: Antitubercular activity, broth dilution MIC; type: cell-based; conditions: for MIC: Mycobacterium tuberculosis, H37RV, 504 h, read-out: Mtb (H37Rv Strain) (MIC in µM); for MIC / Mtb (H37Rv Strain) (MIC in µM): broth dilution, 21 days at 37 °C, mean of three independent experiments, converted from µg/mL; for antitubercular potency relative to the standard pyrazinamide: ratio of MICs, pyrazinamide MIC 25.34 ± 2 µM; for antitubercular activity of F compounds over the Cl-containing compounds: MIC 20.68 µM (9, 11) vs. 78.46 µM (1, 3)
[4] = Homo sapiens, DU-145, 48 h, read-out: Prostate Cancer Cell Line (DU-145) (IC50 in µM), MTT, 48 h
[5] = read-out: Prostate Cancer Cell Line (DU-145) (IC50 in µM), MTT, 48 h

Row | Compound | IC50 [1] | melting point | IC50 [2, 4] | MIC [3] | antitubercular potency relative to the standard pyrazinamide [3] | antitubercular activity of F compounds over the Cl-containing compounds [3] | Mtb (H37Rv Strain) (MIC in µM) [3] | IC50 [2, 5] | Normal Liver Cell Line (L02) (IC50 in µg/mL) ([1]; same protocol as DU-145)
1 | O=C(/C=C/c1sc(Cl)nc1Cl)c1c(F)cccc1F [Compound 14, (E)-1-(2,6-difluorophenyl)-3-(2,4-dichlorothiazol-5-yl)prop-2-en-1-one] | > 70 µg/mL | 141 °C | 25 ± 2 µM | 9.74 ± 2 µM (≈ 3.12 µg/mL) | 2.6 times | – | – | – | –
2 | O=C(/C=C/c1sc(Cl)nc1Cl)c1ccc(Cl)c(Cl)c1 [Compound 8, (E)-1-(3,4-dichlorophenyl)-3-(2,4-dichlorothiazol-5-yl)prop-2-en-1-one] | > 70 µg/mL | 106 °C | 1450.3 ± 1 µM | 141.6 ± 1 µM (≈ 50 µg/mL) | – | – | – | – | –
3 | O=C(/C=C/c1sc(Cl)nc1Cl)c1cccnc1 [Compound 18, (E)-3-(2,4-dichlorothiazol-5-yl)-1-(pyridin-3-yl)prop-2-en-1-one] | > 70 µg/mL | 162 °C | 28.1 ± 1 µM | 701.4 ± 1 µM (≈ 200 µg/mL) | – | – | – | – | –
4 | O=C(/C=C/c1sc(Cl)nc1Cl)c1cc(Cl)ccc1Cl [Compound 6, (E)-1-(2,5-dichlorophenyl)-3-(2,4-dichlorothiazol-5-yl)prop-2-en-1-one] | > 70 µg/mL | 84 °C | 2900.5 ± 2 µM | 141.6 ± 1 µM (≈ 50 µg/mL) | – | – | – | – | –
5 | O=C(/C=C/c1sc(Cl)nc1Cl)c1ccccc1F [Compound 9, (E)-1-(2-fluorophenyl)-3-(2,4-dichlorothiazol-5-yl)prop-2-en-1-one] | > 70 µg/mL | 91 °C | 53 ± 2 µM | 20.7 ± 2 µM (≈ 6.25 µg/mL) | – | 3.79 fold | – | – | –
6 | CN(Cc1cnc2nc(N)nc(N)c2n1)c1ccc(C(=O)N[C@@H](CCC(=O)O)C(=O)O)cc1 [Methotrexate, reference compound] | > 70 µg/mL | – | 11 ± 1 µM | – | – | – | – | – | –
7 | NC(=O)c1cnccn1 [Pyrazinamide, reference compound] | – | – | – | 25.3 µM (≈ 3.12 µg/mL) | – | – | 25.34 ± 2 µM | – | –
8 | O=C(/C=C/c1sc(Cl)nc1Cl)c1cccc(Cl)c1 [Compound 2, (E)-1-(3-chlorophenyl)-3-(2,4-dichlorothiazol-5-yl)prop-2-en-1-one] | > 70 µg/mL | 88 °C | 1607 ± 2 µM | 313.9 ± 1 µM (≈ 100 µg/mL) | – | – | – | – | –
9 | O=C(/C=C/c1sc(Cl)nc1Cl)c1ccc(F)cc1F [Compound 12, (E)-1-(2,4-difluorophenyl)-3-(2,4-dichlorothiazol-5-yl)prop-2-en-1-one] | > 70 µg/mL | 134 °C | 100 ± 1 µM | 2.43 µM (≈ 0.778 µg/mL) | 10.42 times | – | 2.43 ± 1 µM | – | –
10 | O=C(/C=C/c1sc(Cl)nc1Cl)c1cc(F)ccc1F [Compound 13, (E)-1-(2,5-difluorophenyl)-3-(2,4-dichlorothiazol-5-yl)prop-2-en-1-one] | > 70 µg/mL | 129 °C | 3198.7 ± 2 µM | 39 ± 1 µM (≈ 12.5 µg/mL) | – | – | – | – | –
11 | O=C(/C=C/c1sc(Cl)nc1Cl)c1ccc(F)c(F)c1 [Compound 15, (E)-1-(3,4-difluorophenyl)-3-(2,4-dichlorothiazol-5-yl)prop-2-en-1-one] | > 70 µg/mL | 145 °C | 799.7 ± 1 µM | 39 ± 1 µM (≈ 12.5 µg/mL) | – | – | – | – | –
12 | O=C(/C=C/c1sc(Cl)nc1Cl)c1cc(F)cc(F)c1 [Compound 16, (E)-1-(3,5-difluorophenyl)-3-(2,4-dichlorothiazol-5-yl)prop-2-en-1-one] | > 70 µg/mL | 109 °C | 3198.7 ± 1 µM | 156 ± 2 µM (≈ 50 µg/mL) | – | – | – | – | –
13 | O=C(/C=C/c1sc(Cl)nc1Cl)c1nccs1 [Compound 20, (E)-3-(2,4-dichlorothiazol-5-yl)-1-(thiazol-2-yl)prop-2-en-1-one] | > 70 µg/mL | 127 °C | 6.86 ± 1 µM | 343.4 ± 1 µM (≈ 100 µg/mL) | – | – | – | – | –
14 | O=C(/C=C/c1sc(Cl)nc1Cl)c1ccccn1 [Compound 17, (E)-3-(2,4-dichlorothiazol-5-yl)-1-(pyridin-2-yl)prop-2-en-1-one] | > 70 µg/mL | 156 °C | 14 ± 1 µM | 350.7 ± 2 µM (≈ 100 µg/mL) | – | – | – | – | –
15 | O=C(/C=C/c1sc(Cl)nc1Cl)c1ccc(Cl)cc1 [Compound 3, (E)-1-(4-chlorophenyl)-3-(2,4-dichlorothiazol-5-yl)prop-2-en-1-one] | > 70 µg/mL | 104 °C | 401.8 ± 1 µM | 78.5 ± 1 µM (≈ 25 µg/mL) | – | – | – | – | –
16 | O=C(/C=C/c1sc(Cl)nc1Cl)c1cccc(Cl)c1Cl [Compound 4, (E)-1-(2,3-dichlorophenyl)-3-(2,4-dichlorothiazol-5-yl)prop-2-en-1-one] | > 70 µg/mL | 89 °C | 181.3 ± 1 µM | 142 ± 2 µM (≈ 50 µg/mL) | – | – | – | – | –
17 | O=C(/C=C/c1sc(Cl)nc1Cl)c1ccncc1 [Compound 19, (E)-3-(2,4-dichlorothiazol-5-yl)-1-(pyridin-4-yl)prop-2-en-1-one] | > 70 µg/mL | 177 °C | 14 ± 1 µM | 350.7 ± 2 µM (≈ 100 µg/mL) | – | – | – | – | –
18 | O=C(/C=C/c1sc(Cl)nc1Cl)c1ccccc1Cl [Compound 1, (E)-1-(2-chlorophenyl)-3-(2,4-dichlorothiazol-5-yl)prop-2-en-1-one] | > 70 µg/mL | 80 °C | 100 ± 2 µM | 78.5 ± 1 µM (≈ 25 µg/mL) | – | – | – | – | –
19 | O=C(/C=C/c1sc(Cl)nc1Cl)c1ccc(F)cc1 [Compound 11, (E)-1-(4-fluorophenyl)-3-(2,4-dichlorothiazol-5-yl)prop-2-en-1-one] | > 70 µg/mL | 126 °C | 847.3 ± 2 µM | 20.7 ± 2 µM (≈ 6.25 µg/mL) | – | 3.79 fold | 20.68 ± 1 µM | 423.6 ± 2 µM | –
20 | (E)-1-(2,4-dichlorophenyl)-3-(2,4-dichlorothiazol-5-yl)prop-2-en-1-one [Compound 5] | – | – | – | – | – | – | 35.40 ± 2 µM | 90.6 ± 1 µM | >70 µg/mL
21 | O=C(/C=C/c1sc(Cl)nc1Cl)c1cccc(F)c1 [Compound 10, (E)-1-(3-fluorophenyl)-3-(2,4-dichlorothiazol-5-yl)prop-2-en-1-one] | > 70 µg/mL | 112 °C | 423.6 ± 2 µM | 165.5 ± 1 µM (≈ 50 µg/mL) | – | – | – | 847.3 ± 2 µM | –
